Experiments:
[1] = Half-life in Human Liver Microsomes (HLM); conditions: human, human liver microsomes (HL101), pH 7.4
[2] = target: T1, human VR1 receptors (Homo sapiens, UniProt Q8NER1); experiment: Human VR1 antagonist assay (Ca2+ imaging); assay type: cell-based; conditions: cells expressing human VR1, fura-2 Ca2+ imaging, FDSS 6000; capsaicin (300 nM) or acid (pH5.8) stimulation, table does not say which
T1 construct: host or cells: cells highly expressing human VR1; cell type not specified
T1 sequence (Q8NER1 whole entry): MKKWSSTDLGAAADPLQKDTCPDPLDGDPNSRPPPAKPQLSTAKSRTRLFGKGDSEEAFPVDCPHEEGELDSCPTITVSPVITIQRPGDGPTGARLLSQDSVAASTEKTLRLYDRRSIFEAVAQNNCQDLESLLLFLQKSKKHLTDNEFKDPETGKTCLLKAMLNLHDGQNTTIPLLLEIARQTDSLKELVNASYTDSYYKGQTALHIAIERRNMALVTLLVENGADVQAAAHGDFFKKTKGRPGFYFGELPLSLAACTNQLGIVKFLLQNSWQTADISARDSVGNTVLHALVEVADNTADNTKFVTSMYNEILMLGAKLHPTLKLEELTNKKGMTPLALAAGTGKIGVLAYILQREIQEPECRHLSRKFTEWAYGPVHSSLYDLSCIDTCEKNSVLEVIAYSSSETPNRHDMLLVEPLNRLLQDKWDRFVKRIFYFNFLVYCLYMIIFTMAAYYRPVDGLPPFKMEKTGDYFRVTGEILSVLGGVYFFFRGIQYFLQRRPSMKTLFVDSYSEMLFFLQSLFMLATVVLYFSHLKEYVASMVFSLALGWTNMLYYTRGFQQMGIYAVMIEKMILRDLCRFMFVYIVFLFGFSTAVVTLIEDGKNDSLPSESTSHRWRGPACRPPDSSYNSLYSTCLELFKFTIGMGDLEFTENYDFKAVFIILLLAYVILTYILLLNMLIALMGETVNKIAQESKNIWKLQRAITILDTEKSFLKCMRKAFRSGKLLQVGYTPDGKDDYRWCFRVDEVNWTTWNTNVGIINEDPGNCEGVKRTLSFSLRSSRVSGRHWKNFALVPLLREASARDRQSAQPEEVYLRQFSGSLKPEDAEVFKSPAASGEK
Source text: Human VR1 Antagonist Assay
VR1 antagonistic activity can be determined by the Ca^2+ imaging assay using human VR1 highly expressing cells. The cells that highly express human VR1 receptors are obtainable from several different conventional methods. The one standard method is cloning from human Dorsal Root Ganglion (DRG) or kidney according to the methods such as described in the journal article; Nature, 389, pp 816-824, 1997. Alternatively VR1 receptors highly expressing human keratinocytes are also known and published in the journal article (Biochemical and Biophysical Research Communications, 291, pp 124-129, 2002). […] Further more, the method to up regulate human VR1 gene, which is usually a silent gene or don't produce detectable level of VR1 receptors, is also available to obtain propriety cells. Such genetic modification method was described in detail; Nat. Biotechnol., 19, pp 440-445, 2001.
The cells that express human VR1 receptors were maintained in culture flask at 37° C. in an environment containing 5% CO2 until use in the assay. The intracellular Ca^2+ imaging assay to determine VR1 antagonistic activities were done by following procedures.
The culture medium was removed from the flask and fura-2/AM fluorescent calcium indicator was added to the flask at a concentration of 5 μM in the medium. The flask was placed in CO2 incubator and incubated for 1 hour. Then the cells expressing the human VR1 receptors were detached from the flask follow by washing with phosphate buffer saline, PBS(−) and re-suspended in assay buffer. The 80 μl of aliquot of cell suspension (3.75×10^5 cells/ml) was added to the assay plate and the cells were spun down by centrifuge (950 rpm, 20° C., 3 minutes).
Capsaicin Stimulation Assay:
The capsaicin-induced changes in the intracellular calcium concentration were monitored using FDSS 6000 (Hamamatsu Photonics, Japan), a fluorometric imaging system. The cell suspension in Krebs-Ringer HEPES (KRH) buffer (115 mM NaCl, 5.4 mM KCl, 1 mM MgSO4, 1.8 mM CaCl2, 11 mM D-Glucose, 25 mM HEPES, 0.96 mM Na2HPO4, pH 7.3) were pre-incubated with varying concentrations of the test compounds or KRH buffer (buffer control) for 15 minutes at room temperature under the dark condition. Then capsaicin solution, which gives 300 nM in assay mixture, was automatically added to the assay plate by the FDSS 6000.
The Acid-induced changes in the intracellular calcium concentration were monitored using FDSS 6000 (Hamamatsu Photonics, Japan), a fluorometric imaging system. The cell suspension in resting buffer (HBSS supplemented with 10 mM HEPES, pH 7.4) were pre-incubated with varying concentrations of the test compounds or resting buffer (buffer control) for 15 minutes at room temperature under the dark condition. The cells were automatically added the stimulating solution (HBSS supplemented with MES, final assay buffer pH5.8) by the FDSS 6000.
Determination of Antagonist Activity
The monitoring of the changes in the fluorescence signals (λex=340 nm/380 nm, λem=510-520 nm) was initiated at 1 minute prior to the addition of capsaicin solution or acidic buffer and continued for 5 minute.

Row | SMILES | half-life at 1 μM [1] | IC50 [2]
1 | Cc1cc([C@@H](C)NC(=O)[C@H]2C[C@]2(C)c2ccc(C(F)(F)F)cc2)ccc1NS(C)(=O)=O [Example 15, (1S,2S)-2-Methyl-N-((1R)-1-{3-methyl-4-[(methylsulfonyl)amino]phenyl}ethyl)-2-[4-(trifluoromethyl)phenyl]cyclopropanecarboxamide] | 38 min | 0.71 nM
2 | Cc1cc([C@@H](C)NC(=O)C2CC2(C)c2ccc(OC(F)(F)F)cc2)ccc1NS(C)(=O)=O (stereo partly drawn) [Example 16, 2-Methyl-N-((1R)-1-{3-methyl-4-[(methylsulfonyl)amino]phenyl}ethyl)-2-[4-(trifluoromethoxy)phenyl]cyclopropanecarboxamide] | 53 min | 6.59 nM
3 | C[C@@H](NC(=O)C1CC1c1ccc(C(C)(C)C(F)(F)F)cc1)c1ccc(NS(C)(=O)=O)c(F)c1 (stereo partly drawn) [Example 18, N-((1R)-1-{3-Fluoro-4-[(methylsulfonyl)amino]phenyl}ethyl)-2-[4-(2,2,2-trifluoro-1,1-dimethylethyl)phenyl]cyclopropanecarboxamide] | 119 min | 282 nM
4 | Cc1cc([C@@H](C)NC(=O)C2CC2c2ccc(C(F)(F)F)cc2)ccc1NS(C)(=O)=O (stereo partly drawn) [Example 19a, N-((1R)-1-{3-Methyl-4-[(methylsulfonyl)amino]phenyl}ethyl)-2-[4-(trifluoromethyl)phenyl]cyclopropanecarboxamide] | > 120 min | 23 nM
5 | C[C@@H](NC(=O)C1CC1c1ccc(C(F)(F)F)cc1)c1ccc(NS(C)(=O)=O)c(CO)c1 (stereo partly drawn) [Example 20, N-((1R)-1-{3-(Hydroxymethyl)-4-[(methylsulfonyl)amino]phenyl}ethyl)-2-[4-(trifluoromethyl)phenyl]cyclopropanecarboxamide] | > 120 min | 47 nM
6 | C[C@@H](NC(=O)[C@H]1C[C@]1(C)c1ccc(C(F)(F)F)cc1)c1ccc(NS(C)(=O)=O)cc1 [Example 21, (1S,2S)-2-Methyl-N-((1R)-1-{4-[(methylsulfonyl)amino]phenyl}ethyl)-2-[4-(trifluoromethyl)phenyl]cyclopropanecarboxamide] | > 120 min | 20.1 nM
7 | C[C@@H](NC(=O)[C@H]1C[C@]1(C)c1ccc(C(F)(F)F)cc1)c1ccc(NS(C)(=O)=O)c(CO)c1 [Example 22, (1S,2S)-N-((1R)-1-{3-(Hydroxymethyl)-4-[(methylsulfonyl)amino]phenyl}ethyl)-2-methyl-2-[4 (trifluoromethyl)phenyl]cyclopropanecarboxamide] | 37 min | 1.2 nM
8 | C[C@@H](NC(=O)[C@H]1C[C@]1(C)c1ccc(C(F)(F)F)cc1)c1ccc(NS(C)(=O)=O)c(F)c1 [Example 23, (1S,2S)-N-((1R)-1-{3-Fluoro-4-[(methylsulfonyl)amino]phenyl}ethyl)-2-methyl-2-[4-(trifluoromethyl)phenyl]cyclopropanecarboxamide] | > 120 min | 10.9 nM
9 | Cc1cc([C@@H](C)NC(=O)C2CC2(C)c2ccc(SC(F)(F)F)cc2)ccc1NS(C)(=O)=O (stereo partly drawn) [Example 24, 2-Methyl-N-((1R)-1-{3-methyl-4-[(methylsulfonyl)amino]phenyl}ethyl)-2-{4-[(trifluoromethyl)thio]phenyl}cyclopropanecarboxamide] | 23 min | 19.3 nM
10 | C[C@@H](NC(=O)C1CC1(C)c1ccc(SC(F)(F)F)cc1)c1ccc(NS(C)(=O)=O)c(CO)c1 (some centres unmarked) [Example 25] | 30 min | 26.6 nM
11 | Cc1cc([C@@H](C)NC(=O)C2CC2(C)c2ccc(S(=O)(=O)C(F)(F)F)cc2)ccc1NS(C)(=O)=O (stereo partly drawn) [Example 26, 2-Methyl-N-((1R)-1-{3-methyl-4-[(methylsulfonyl)amino]phenyl}ethyl)-2-{4-[(trifluoromethyl)sulfonyl]phenyl}cyclopropanecarboxamide] | 38 min | 78.3 nM
12 | Cc1cc([C@@H](C)NC(=O)C2CC2(C)c2ccc(C(C)(C)C(F)(F)F)cc2)ccc1NS(C)(=O)=O (some centres unmarked) [Example 27] | 25 min | 7.83 nM
13 | CC[C@@H](NC(=O)[C@H]1C[C@]1(C)c1ccc(C(F)(F)F)cc1)c1ccc(NS(C)(=O)=O)cc1 [Example 31, (1S,2S)-2-Methyl-N-((1R)-1-{4-[(methylsulfonyl)amino]phenyl}propyl)-2-[4-(trifluoromethyl)phenyl]cyclopropanecarboxamide] | > 120 min | 192 nM
14 | CCc1cc([C@@H](C)NC(=O)[C@H]2C[C@]2(C)c2ccc(C(F)(F)F)cc2)ccc1NS(C)(=O)=O [Example 32, (1S,2S)-N-((1R)-1-{3-Ethyl-4-[(methylsulfonyl)amino]phenyl}ethyl)-2-methyl-2-[4-(trifluoromethyl)phenyl]cyclopropanecarboxamide] | 10.8 min | 0.934 nM
15 | CCc1cc([C@@H](C)NC(=O)[C@H]2C[C@@H]2c2ccc(C(F)(F)F)cc2)ccc1NS(C)(=O)=O [Example 33, N-((1R)-1-{3-Ethyl-4-[(methylsulfonyl)amino]phenyl}ethyl)-2-[4-(trifluoromethyl)phenyl]cyclopropanecarboxamide] | 39 min | 56.2 nM
16 | CC[C@@H](NC(=O)[C@H]1C[C@]1(C)c1ccc(C(F)(F)F)cc1)c1ccc(NS(C)(=O)=O)c(C)c1 [Example 34, (1S,2S)-2-Methyl-N-((1R)-1-{3-methyl-4-[(methylsulfonyl)amino]phenyl}propyl)-2-[4-(trifluoromethyl)phenyl]cyclopropanecarboxamide] | > 120 min | 4.72 nM
17 | Cc1cc([C@@H](C)NC(=O)[C@H]2C[C@]2(C)c2ccc(C(C)(C)C(F)(F)F)cc2)ncc1NS(C)(=O)=O [Example 37, 2-Methyl-N-((1R)-1-{4-methyl-5-[(methylsulfonyl)amino]pyridin-2-yl}ethyl)-2-[4-(2,2,2-trifluoro-1,1-dimethylethyl)phenyl]cyclopropanecarboxamide] | 41 min | 197 nM
18 | C[C@@H](NC(=O)[C@H]1C[C@@H]1c1cc(F)c(C(C)(C)C)c(F)c1)c1ccc(NS(C)(=O)=O)cc1 [Example 38, 2-[4-tert-Butyl-3,5-difluorophenyl]-N-((1R)-1-{4-[(methylsulfonyl)amino]phenyl}ethyl)cyclopropanecarboxamide] | 40 min | 70.9 nM
19 | Cc1cc([C@@H](C)NC(=O)[C@H]2C[C@@H]2c2cc(F)c(C(C)(C)C)c(F)c2)ccc1NS(C)(=O)=O [Example 39, 2-(4-tert-Butyl-3,5-difluorophenyl)-N-((1R)-1-{3-methyl-4-[(methylsulfonyl)amino]phenyl}ethyl)cyclopropanecarboxamide] | 15 min | 9.12 nM
20 | C[C@@H](NC(=O)[C@H]1C[C@@H]1c1cc(F)c(C(C)(C)C)c(F)c1)c1ccc(NS(C)(=O)=O)c(F)c1 [Example 40, 2-(4-tert-Butyl-3,5-difluorophenyl)-N-((1R)-1-{3-fluoro-4-[(methylsulfonyl)amino]phenyl}ethyl)cyclopropanecarboxamide] | 35 min | 32.5 nM
21 | Cc1cc([C@@H](C)NC(=O)[C@H]2C[C@]2(C)c2ccc(C(F)(F)F)cc2)c(F)cc1NS(C)(=O)=O [Example 41, (1S,2S)-N-((1R)-1-{2-Fluoro-5-methyl-4-[(methylsulfonyl)amino]phenyl}ethyl)-2-methyl-2-[4-(trifluoromethyl)phenyl]cyclopropanecarboxamide] | 21 min | 0.234 nM
22 | Cc1cc([C@@H](C)NC(=O)[C@H]2C[C@]2(C)c2ccc(C(F)(F)F)c(F)c2)c(F)cc1NS(C)(=O)=O [Example 42, N-((1R)-1-{2-Fluoro-5-methyl-4-[(methylsulfonyl)amino]phenyl}ethyl)-2-[3-fluoro-4-(trifluoromethyl)phenyl]-2-methylcyclopropanecarboxamide] | 19.7 min | 0.713 nM

— patent US7915448B2, “Substituted sulfonylaminoarylmethyl cyclopropanecarboxamide as VR1 receptor antagonists” (Pfizer Inc., priority 2005, dated 2011)
